What is called IC50 is the point on the concentration scale where inhibition reaches its midpoint.

The test system of one test is RWPE-1 cells. The experiment in a line: Cell viability by MTT assay, RWPE-1 normal prostate cells. Type of test: cell-based, human. On the procedure:
Figure 3 Comparison of the effect of 2-oxindole fluorinated derivatives on the proliferation of human prostate cancer cells. (A) Normal (PTN2 and RWPE-1) and cancer (PC3,DU145 and LNCaP) prostate cells were treated with different doses of the compounds for 24 hours and cell viability was monitored by MTT assay. […] (C) PC-3, DU145 and LNCaP cells were treated with 25 µM of compound 8c for different times. Values were normalized with the control and represent the mean ± SD of at least three independent experiments. *p < 0.05 and **p < 0.01 compared to control by the Student’s - test.
Human prostate cancer epithelial PC-3, DU145 and LNCaP and human prostate normal RWPE-1 cells were purchased from American Type Culture Collection (ATCC CRL-1435 CRL-1740 and CRL 11609 respectively) (Rockville, MD, USA). The human prostate normal PNT2 cell line was purchased to ECACC (European Collection of Cell cultures, Salisbury, SP4 0JG, UK). Cells were routinely grown in RPMI 1640 medium supplemented with 100 IU/ml penicillin G sodium, 100 µg/ml streptomycin sulfate, 0.25 µg/ml amphotericin B (Invitrogen, Paisley, UK) and 10% fetal calf serum. Cells were used at passages between 10–20. For treatment experiments, cells were plated and grown over night, the medium was then replaced with serum-free RPMI 1640 for 24 hours and then incubated with different doses of the compounds for the indicated times.
Cell viability was determined by 3-(4,5-dimethylthiazol-2-yl)-2,5-diphenyltetrazolium bromide (MTT) (Sigma-Aldrich) method. […] The optical density in each well was evaluated by measurement of absorbance at 490 and 650 nm using a microplate reader (ELX 800 Bio-Tek Intruments, INC). IC50 values were calculated using GraphPad Prism vs 6.0 (GraphPad Software, Inc, La Jolla, CA, USA). Cell viability was also determined by counting viable and dead cells by Trypan blue staining. Trypan blue positive and negative cells were counted using a Countess^TM automated cell counter (Invitrogen, Carlsbad, CA, USA). Results were expressed in relation to total number of cells counted.
Background: Formazan colour is commonly taken as a measure of viable cells.

A further test has as its system PC-3 xenograft tumors. As to the kind of experiment: PC-3 xenograft tumor growth in nude mice. Type of test: in vivo. To be noted: 5 mg/Kg daily, 15 days. The text has this: To validate the therapeutic value of the compound 8c against castration-resistant prostate cancer a murine xenograft model was employed. Due to the potent effect of compound 8c on the aggressive PC-3 cell line and in order to avoid unnecessary wasting of animals according to the 3 Rs guidelines (reduction, replacement, refinement) for the use of animals in research, we only use PC-3 cells for the in vivo studies. PC-3 tumors were induced in nude mice by subcutaneous injection of cells in the right flank of the mouse. When tumors reached a 70 mm^3 volume, mice were daily treated with 5 mg/Kg of compound 8c. In vehicle-treated mice, an increase in tumor growth volume was observed during the course of the study and at the end of experimentation (Fig. 8A).
Figure 8 Inhibition of prostate tumor xenograft growth in vivo by compound 8c. […]
Male immunodeficient nude-Foxn1 (nu/nu) mice (Envigo RMS, Barcelona, Spain), 4 to 6 week old, were used for all xenograft studies. […] Tumors were measured with external calipers and volume was calculated by the modified ellipsoidal formula as volume = length × (width)^2 × 0.52 mm^3 [52],[53]. At the end of the study, the mice were sacrificed by placing them in a CO2 gas-filled chamber, and the excised tumors were recovered and homogenized in lysis buffer for protein quantification and Western blotting.

In the test with RWPE-1 cells (Homo sapiens, RWPE-1, MTT, 24 hours), `O=C1Nc2ccccc2C1(F)Cc1ccc(-c2ccccc2)o1` (stereo not shown) [Compound 8c, 3-fluoro-3-((5-phenylfuran-2-yl)methyl)indolin-2-one] returned an IC50 of over 1000 µM. For the same molecule, in the test with RWPE-1 cells (RWPE-1, 50 μM), the “inhibitory efficacy on cells viability at 50 μM” value worked out at 50%. Further, in the test with PC-3 xenograft tumors (Western blot of tumors), the “AMPK activation, ACC phosphorylation, Cyclin D1 and procaspase-3 levels in xenograft tumors” value was “promoted AMPK activation, increased ACC phosphorylation, decreased Cyclin D1 and decreased procaspase-3 levels”. Besides, in the test on PC-3 xenograft tumors (subcutaneously, nude mice, vs vehicle), the xenograft tumor growth result was “significantly reduced tumor growth”.

Source of the values: PMC5847527, “Identification of a novel 2-oxindole fluorinated derivative as in vivo antitumor agent for prostate cancer acting via AMPK activation” (Scientific Reports, 2018).
